{
  "source": "patent US20220306623A1",
  "about": "“PYRIDYL OR PYRIMIDYL MTOR KINASE INHIBITORS” (GLAXOSMITHKLINE INTELLECTUAL PROPERTY DEVELOPMENT LIMITED, priority 2019, published 2022)",
  "data": [
    {"test_system": "phosphorylated Akt at serine 473 (pAKTs473) in primary human lung fibroblasts", "assay": "High throughput phosphorylated Akt (Ser473) in vitro immunoassay (MSD)", "assay_type": "cell-based", "details": "Fibroblast, primary human lung fibroblasts (Lonza), 384-well, compound 1 h, PDGF-BB 10 ng/ml 10 min, read-out: mean pIC50, pAKTser473 high throughput immunoassay (converted)", "from_the_text": "Immunoassay to measure effect of test compounds on phosphorylated Akt at serine 473 (pAKTs473) in primary human lung fibroblasts (Lonza Group Ltd, Basel, Switzerland, Catalogue No. CC-2512) using the MesoScale Discovery (MSD) platform to quantify levels of total Akt and pAKTser473.\nHuman lung fibroblasts were routinely maintained in fibroblast basal medium supplemented with 2% foetal bovine serum (FBS), 0.1% human fibroblast growth factor (FGF)-B, 0.1% insulin, 0.1% GA-100 (Lonza Group Ltd, Basel, Switzerland, Catalogue No. CC-3132) at 37° C. in 5% CO2 according to the manufacturer's protocol.\nFor the assay, cells were harvested using Trypsin/EDTA, (Lonza Group Ltd, Basel, Switzerland, Catalogue No. CC-5012), at working concentration of 0.025%, resuspended to give 3×10^5 cells/ml and 50 ul/well seeded into 384-well plates (Greiner Group, Kremsmunster, Austria, Catalogue No. 781091) in media containing 0.4% FBS and incubated o/n at 37° C. in 5% CO2.\nTest compounds were dissolved in 100% DMSO to give 10 mM stock solutions and serially diluted to generate an 11-point concentration response curve. Compound were further diluted by […] into 384-well V-bottom polypropylene plates (Greiner Group, Kremsmunster, Austria, Catalogue No. 781280) with media containing 0.4% FBS to give 50 µM top compound concentration in 0.5% DMSO.\nCompounds were transferred to 384-well plates contacting cells (0.1% DMSO final) and incubated for 1 h at 37° C. in 5% CO2, prior to stimulation with platelet-derived growth factor (PDGF)-BB (R&D Systems, Catalogue No. 220-BB) at 10 ng/ml (final) for 10 min at RT. Cell assay plates were incubated on ice and treated with lysis buffer (Cell Signalling Technology, Catalogue No. 9806) containing protease and phosphatase inhibitors (Thermo Scientific, Catalogue No. 78444) followed by shaking for 30 min at 4° C.\nMSD plates (MSD, MA6000 384-well GAR plate, Catalogue No. L21RA-2) were blocked with blocking buffer containing TBS (MSD, Cat. No. R61TX-1) with 0.5% bovine serum albumin (BSA) (Sigma Aldrich, Cat. No. A7906), 0.1% tween-20 (Sigma Aldrich, Catalogue No. P2287) and coated with rabbit-anti-human pAkt (s473) ab (Cell Signalling Technology, Catalogue No. CST #4060) at RT with shaking, followed by washing (×3) with 1×TBS wash reagent containing 0.1% Tween-20. Cell lysates (30 ul) were added and MSD plates centrifuged at 1000 rpm at 4° C. o/n.\nPlates were washed with 1×TBS wash buffer (×3), prior to addition of mouse-anti-human-total Akt ab (1 mg/ml) (Upstate (Milipore), Catalogue No. 05-591) in blocking buffer and shaken at RT for 1 h. After washing with 1×TBS wash buffer (×3), plates were incubated with goat-anti-mouse SULFO-TAG detection ab (MSD, Catalogue No. R32AC-1) (1:500 in blocking buffer) for 1 h at RT. Plates were washed with 1×TBS (×3) and read buffer (2×) (MSD, Catalogue No. R92TC-1) added before detecting electrochemiluminescence (MSD Sector Imager 6000).\nData analysis was performed by determining % inhibition values for test compounds relative to the minimum (+PDGF-BB stimulation) and maximum responses (no PDGF-BB stimulation) with non-linear regression analysis to determine IC50 values for test compounds.", "units": {"IC50": "nM"}, "values": [
      {"compound": "CC[C@H]1COCCN1c1cc(CS(C)(=O)=O)nc(-c2ccc3[nH]c(CNC)cc3n2)n1", "note": "[Example 1, [(5-{4-[(3S)-3-ethylmorpholin-4-yl]-6-(methanesulfonylmethyl)pyrimidin-2-yl}-1H-pyrrolo[3,2-b]pyridin-2-yl)methyl](methyl)amine]", "IC50": "2.51 to 25.1"},
      {"compound": "CNCc1cc2nc(-c3cc(CS(C)(=O)=O)cc(N4CCO[C@H](C)[C@H]4C)n3)ccc2[nH]1", "note": "[Example 8, 1-(5-(6-((2R,3R)-2,3-dimethylmorpholino)-4-((methylsulfonyl)methyl)pyridin-2-yl)-1Hpyrrolo[3,2-b]pyridin-2-yl)-Nmethylmethanamine]", "IC50": "2.51 to 25.1"},
      {"compound": "CC[C@H]1COCCN1c1cc(CS(=O)(=O)N(C)C)nc(-c2ccc3[nH]c(CO)cc3n2)n1", "note": "[Example 9, 1-{6-[(3S)-3-ethylmorpholin-4-yl]-2-[2-(hydroxymethyl)-1H-pyrrolo[3,2-b]pyridin-5-yl]pyrimidin-4-yl}-N,N-dimethylmethanesulfonamide]", "IC50": "2.51 to 25.1"},
      {"compound": "CC[C@H]1COCCN1c1cc(CS(=O)(=O)NC)nc(-c2ccc3[nH]c(CO)cc3n2)n1", "note": "[Example 10, 1-{6-[(3S)-3-ethylmorpholin-4-yl]-2-[2-(hydroxymethyl)-1H-pyrrolo[3,2-b]pyridin-5-yl]pyrimidin-4-yl}-N-methylmethanesulfonamide]", "IC50": "2.51 to 25.1"},
      {"compound": "CC[C@H]1COCCN1c1cc(C2(S(C)(=O)=O)CCOCC2)nc(-c2ccc3[nH]c(C)cc3n2)n1", "note": "[Example 13, (3S)-3-ethyl-4-[6-(4-methanesulfonyloxan-4-yl)-2-{2-methyl-1H-pyrrolo[3,2-b]pyridin-5-yl}pyrimidin-4-yl]morpholine]", "IC50": "2.51 to 25.1"},
      {"compound": "CC[C@H]1COCC(=O)N1c1cc(CS(C)(=O)=O)nc(-c2ccc3[nH]c(C)cc3n2)n1", "note": "[Example 14, (5S)-5-ethyl-4-[6-(methanesulfonylmethyl)-2-{2-methyl-1H-pyrrolo[3,2-b]pyridin-5-yl}pyrimidin-4-yl]morpholin-3-one]", "IC50": "2.51 to 25.1"},
      {"compound": "CCc1cc2nc(-c3nc(CS(C)(=O)=O)cc(N4C(=O)COC[C@@H]4CC)n3)ccc2[nH]1", "note": "[Example 15, (5S)-5-ethyl-4-(2-{2-ethyl-1H-pyrrolo[3,2-b]pyridin-5-yl}-6-(methanesulfonylmethyl)pyrimidin-4-yl)morpholin-3-one]", "IC50": "2.51 to 25.1"},
      {"compound": "CC[C@H]1COCCN1c1cc(CS(=O)(=O)N(C)C)nc(-c2ccc3[nH]c(CNC)cc3n2)n1", "note": "[Example 16, 1-{6-[(3S)-3-ethylmorpholin-4-yl]-2-{2-[(methylamino)methyl]-1H-pyrrolo[3,2-b]pyridin-5-yl}pyrimidin-4-yl}-N,N-dimethylmethanesulfonamide]", "IC50": "2.51 to 25.1"},
      {"compound": "CC[C@H]1COCCN1c1cc(CS(N)(=O)=O)cc(-c2ccc3[nH]c(C)cc3n2)n1", "note": "[Example 23, (S)-(2-(3-ethylmorpholino)-6-(2-methyl-1H-pyrrolo[3,2-b]pyridin-5-yl)pyridin-4-yl)methanesulfonamide]", "IC50": "2.51 to 25.1"},
      {"compound": "CC[C@H]1COCC(=O)N1c1cc(CS(C)(=O)=O)cc(-c2ccc3[nH]c(C)cc3n2)n1", "note": "[Example 24, (S)-5-ethyl-4-(6-(2-methyl-1H-pyrrolo[3,2-b]pyridin-5-yl)-4-((methylsulfonyl)methyl)pyridin-2-yl)morpholin-3-one]", "IC50": "2.51 to 25.1"},
      {"compound": "CC[C@H]1COCC(=O)N1c1cc(C2(S(C)(=O)=O)CCOCC2)cc(-c2ccc3[nH]c(C)cc3n2)n1", "note": "[Example 25, (S)-5-ethyl-4-(6-(2-methyl-1H-pyrrolo[3,2-b]pyridin-5-yl)-4-(4-(methylsulfonyl)tetrahydro-2H-pyran-4-yl)pyridin-2-yl)morpholin-3-one]", "IC50": "2.51 to 25.1"},
      {"compound": "CC[C@H]1COCC(=O)N1c1cc(C2(S(C)(=O)=O)CCOCC2)cc(-c2ccc3[nH]c(CO)cc3n2)n1", "note": "[Example 26]", "IC50": "2.51 to 25.1"}
    ]}
  ]
}
